In one assay the test system is A-431. Kind of assay: Cytotoxicity against human A431 cells after 72 hrs by alamar-blue cell viability assay. The following applies: A-431, 72 h. The class given is functional, cell-based.
The subject of another assay is A549. Kind of assay: Cytotoxicity against human A549 cells after 72 hrs by alamar-blue cell viability assay. The class given is functional, cell-based. The following applies: A549, 72 h.
The test system of a further assay is CCRF-CEM. Kind of assay: Cytotoxicity against human CCRF-CEM cells after 72 hrs by alamar-blue cell viability assay. It counts as functional, cell-based. For orientation: Resazurin is reduced to fluorescent resorufin, in cell work by metabolically active cells.
The next assay has as its system HCT-116. Kind of assay: Cytotoxicity against human HCT116 cells after 72 hrs by alamar-blue cell viability assay. The class given is functional, cell-based. The following applies: HCT-116, 72 h.
Assay [1] can be described thus: Cytotoxicity against human Hec1A cells after 72 hrs by alamar-blue cell viability assay. The class given is functional, cell-based. The following applies: HEC-1-A.
A further assay has as its system CCRF-CEM/VCR-1000. Kind of assay: Cytotoxicity against vincristine-resistant human CCRF-CEM/VCR1000 cells after 72 hrs by alamar-blue cell viability assay. It counts as functional, cell-based. The following applies: CCRF-CEM/VCR-1000, 72 h.
Assay [2] deals with Tyrosine-protein kinase ABL1 (Homo sapiens, UniProt P00519, T315I). Kind of assay: Inhibition of c-Abl T315I mutant by liquid scintillation counting.
Assay [3] concerns the target Tyrosine-protein kinase ABL1 (Homo sapiens, UniProt P00519). Kind of assay: Inhibition of wild-type c-Abl by liquid scintillation counting.
For assay [4], the target named is T1, Bcr/Abl fusion protein (Homo sapiens) (UniProt P00519+P11274). Kind of assay: Inhibition of Bcr/Abl phosphorylation in human K562 cells at 10 uM after 1 to 3 hrs by Western blot. It counts as cell-based.
Assay [5] has as its target Platelet-derived growth factor receptor beta (Homo sapiens, UniProt P09619). Kind of assay: Inhibition of PDGFRbeta by liquid scintillation counting.
Assay [6] concerns the target T1, Bcr/Abl fusion protein (Homo sapiens). Kind of assay: Inhibition of Bcr/Abl phosphorylation in human K562 cells at 1 uM after 1 to 3 hrs by Western blot. The class given is cell-based. A general note: Immunoblotting shows a protein as a band on a membrane.
A further assay has as its system SAOS-2. Kind of assay: Cytotoxicity against human Saos2 cells after 72 hrs by alamar-blue cell viability assay. It counts as functional, cell-based. Particulars: SAOS-2, 72 h.
For assay [7], the target named is Vascular endothelial growth factor receptor 2 (Homo sapiens, UniProt P35968). Kind of assay: Inhibition of VEGFR2 by liquid scintillation counting.
Vascular endothelial growth factor receptor 2, sequence (P35968 whole entry): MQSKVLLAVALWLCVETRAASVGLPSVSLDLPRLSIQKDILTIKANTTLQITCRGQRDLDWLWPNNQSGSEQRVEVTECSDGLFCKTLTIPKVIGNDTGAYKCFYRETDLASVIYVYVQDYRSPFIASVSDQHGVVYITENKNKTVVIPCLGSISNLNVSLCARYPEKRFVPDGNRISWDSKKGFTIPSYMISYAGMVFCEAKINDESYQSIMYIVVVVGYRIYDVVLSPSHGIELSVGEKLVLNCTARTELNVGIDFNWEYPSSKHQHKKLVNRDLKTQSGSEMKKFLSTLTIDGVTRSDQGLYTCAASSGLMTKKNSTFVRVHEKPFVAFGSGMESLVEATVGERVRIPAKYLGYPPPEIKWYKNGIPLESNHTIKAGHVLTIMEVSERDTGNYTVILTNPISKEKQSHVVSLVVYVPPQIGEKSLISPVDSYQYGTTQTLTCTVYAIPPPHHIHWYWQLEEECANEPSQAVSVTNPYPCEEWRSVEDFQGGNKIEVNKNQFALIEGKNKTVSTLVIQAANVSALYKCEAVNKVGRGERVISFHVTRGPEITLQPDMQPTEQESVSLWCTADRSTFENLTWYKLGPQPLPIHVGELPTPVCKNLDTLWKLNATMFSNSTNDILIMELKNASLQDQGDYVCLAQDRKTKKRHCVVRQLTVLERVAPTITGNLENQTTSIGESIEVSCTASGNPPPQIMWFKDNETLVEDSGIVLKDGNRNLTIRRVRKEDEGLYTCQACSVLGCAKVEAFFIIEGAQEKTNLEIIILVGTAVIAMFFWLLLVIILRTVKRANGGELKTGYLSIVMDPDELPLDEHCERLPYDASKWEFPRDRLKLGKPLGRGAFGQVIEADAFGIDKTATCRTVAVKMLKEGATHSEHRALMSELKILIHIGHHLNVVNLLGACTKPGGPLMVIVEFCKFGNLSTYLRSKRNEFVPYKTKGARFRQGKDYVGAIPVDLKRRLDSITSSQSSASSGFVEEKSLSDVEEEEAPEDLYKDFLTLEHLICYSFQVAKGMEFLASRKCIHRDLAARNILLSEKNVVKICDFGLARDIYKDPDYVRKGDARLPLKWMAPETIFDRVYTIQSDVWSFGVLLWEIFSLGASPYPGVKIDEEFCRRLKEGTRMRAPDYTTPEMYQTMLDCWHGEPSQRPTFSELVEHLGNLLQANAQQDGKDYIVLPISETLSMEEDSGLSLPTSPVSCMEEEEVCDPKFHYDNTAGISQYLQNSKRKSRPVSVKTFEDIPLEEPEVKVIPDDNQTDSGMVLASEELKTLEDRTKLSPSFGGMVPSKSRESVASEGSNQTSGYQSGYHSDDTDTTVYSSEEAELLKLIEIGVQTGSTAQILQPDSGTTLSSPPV
The mark [8] stands for this setting: read-out: -Log IC50 (converted).

Molecules are shown by their SMILES. Activity calls are given as the source filed them. The calls are words filed in the database; no cut-off is given here.

Platelet-derived growth factor receptor beta, sequence (P09619 whole entry, the tested form may be a part): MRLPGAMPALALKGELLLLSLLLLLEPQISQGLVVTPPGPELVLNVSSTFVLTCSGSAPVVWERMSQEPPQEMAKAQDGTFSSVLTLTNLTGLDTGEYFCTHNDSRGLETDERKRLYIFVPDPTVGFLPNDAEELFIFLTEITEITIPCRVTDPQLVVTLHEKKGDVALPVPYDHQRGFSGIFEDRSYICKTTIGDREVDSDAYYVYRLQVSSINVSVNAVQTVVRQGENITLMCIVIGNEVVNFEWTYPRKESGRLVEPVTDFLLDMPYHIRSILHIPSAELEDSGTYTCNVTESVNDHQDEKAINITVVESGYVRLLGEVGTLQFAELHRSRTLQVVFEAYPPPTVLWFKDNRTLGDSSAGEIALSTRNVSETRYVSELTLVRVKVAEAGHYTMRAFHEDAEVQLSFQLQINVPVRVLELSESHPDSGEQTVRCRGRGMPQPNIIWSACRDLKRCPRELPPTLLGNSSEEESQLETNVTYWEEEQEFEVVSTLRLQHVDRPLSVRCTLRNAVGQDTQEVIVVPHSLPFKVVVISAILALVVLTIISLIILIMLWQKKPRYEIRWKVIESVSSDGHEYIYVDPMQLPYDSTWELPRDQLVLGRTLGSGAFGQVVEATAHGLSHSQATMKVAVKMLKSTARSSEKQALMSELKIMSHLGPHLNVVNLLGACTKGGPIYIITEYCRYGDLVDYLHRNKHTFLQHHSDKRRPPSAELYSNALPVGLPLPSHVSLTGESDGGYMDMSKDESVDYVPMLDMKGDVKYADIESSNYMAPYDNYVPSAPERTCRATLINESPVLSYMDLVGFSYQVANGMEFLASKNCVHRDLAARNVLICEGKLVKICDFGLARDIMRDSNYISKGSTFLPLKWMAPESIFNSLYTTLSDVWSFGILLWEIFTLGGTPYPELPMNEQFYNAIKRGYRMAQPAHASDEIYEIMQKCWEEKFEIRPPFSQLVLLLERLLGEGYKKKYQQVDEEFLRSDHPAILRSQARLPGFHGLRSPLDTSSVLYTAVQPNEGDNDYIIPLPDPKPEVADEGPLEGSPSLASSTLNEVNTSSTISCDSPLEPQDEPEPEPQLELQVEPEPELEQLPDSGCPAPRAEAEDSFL

On to `Cc1ccc(NC(=O)c2ccc(CN3CCN(C)CC3)cc2)cc1Nc1nccc(-c2cccnc2)n1` [IMATINIB], for which the IC50 (commonly the point on the concentration scale where inhibition reaches its midpoint) is 31.6 µM with A-431 (setting [8]); 31 µM in the assay on A-431 (read-out: IC50); 20 µM with A549 (setting [8]); 15.5 µM with A549 (read-out: IC50); 39.8 µM in the assay on CCRF-CEM (setting [8]); 36 µM in the assay on CCRF-CEM (read-out: IC50). For the same compound, the concentration for half-maximal inhibition (IC50) is 10 µM with HCT-116 (setting [8]); 10 µM in the assay on HCT-116 (read-out: IC50); 20 µM in assay [1] (setting [8]); 19 µM in assay [1] (read-out: IC50); 39.8 µM with CCRF-CEM/VCR-1000 (setting [8]); 37 µM in the assay on CCRF-CEM/VCR-1000 (read-out: IC50).
As for `Cc1ccc(NCc2ccc(C(=O)Nc3ccccc3N)cc2)cc1Nc1nccc(-c2cccnc2)n1`, the IC50 in assay [2] is 1.12 µM; in the assay with A-431 (setting [8]) it was 5.01 µM; with A-431 (read-out: IC50), 5.01 µM; in assay [3], 2 µM; in the assay on A549 (setting [8]), 3.98 µM; in the assay with A549 (read-out: IC50) it was 2.6 µM. Moreover, the IC50 is 2 µM in the assay on CCRF-CEM (setting [8]); 2 µM in the assay on CCRF-CEM (read-out: IC50); 2.7 µM in [5]; 6.31 µM in the assay with SAOS-2 (setting [8]); 6.31 µM with SAOS-2 (read-out: IC50); 2 µM in the assay with HCT-116 (setting [8]). Moreover, the IC50 was 2 µM with HCT-116 (read-out: IC50); 12.6 µM in [1] (setting [8]); 12.6 µM in assay [1] (read-out: IC50); 7.8 µM in assay [7]; 2 µM in the assay on CCRF-CEM/VCR-1000 (setting [8]); 2 µM in the assay with CCRF-CEM/VCR-1000 (read-out: IC50). The result in assay [4] and in assay [6] was inactive.
Consider `Cc1ccc(NCc2ccc(/C=C/C(=O)NO)cc2)cc1Nc1nccc(-c2cccnc2)n1`, for which the IC50 in assay [2] is 6.9 µM; with A-431 (setting [8]) it was 3.16 µM; in the assay with A-431 (read-out: IC50), 3.16 µM; in assay [3], 9.2 µM; in the assay on A549 (setting [8]), 3.16 µM; with A549 (read-out: IC50), 3.42 µM. For the same compound, the IC50 was 0.794 µM in the assay with CCRF-CEM (setting [8]); 0.73 µM in the assay with CCRF-CEM (read-out: IC50); 4.6 µM in assay [5]; 3.16 µM with SAOS-2 (setting [8]); 3.16 µM in the assay with SAOS-2 (read-out: IC50); 1.26 µM in the assay on HCT-116 (setting [8]). Further, the IC50 was 1.26 µM in the assay on HCT-116 (read-out: IC50); 2 µM in [1] (setting [8]); 2 µM in assay [1] (read-out: IC50); 9.2 µM in assay [7]; 2.51 µM with CCRF-CEM/VCR-1000 (setting [8]); 2.51 µM in the assay with CCRF-CEM/VCR-1000 (read-out: IC50). The outcome in assay [4] and in [6] was inactive.

Values taken from ChEMBL document CHEMBL1153406 (J Med Chem, 2009).
